Assay results from patent US8673587B2, “Methods for identifying allosteric and other novel acyl-coenzyme A:cholesterol acyltransferase inhibitors” (Trustees of Dartmouth College, priority 2010, dated 2014).
One block for each molecule: values may come before it.

Columns and labels:
[1] = system: lysohpospholipid acyltransferase (LPAT); conditions: cited from earlier work
[2] = system: amyloid precursor protein (APP); conditions: animal models for AD; cited from earlier work
[3] = fed to animals; cited from earlier work
[4] = target: T1, HisACAT1/FLAG (recombinant hACAT1) (Homo sapiens, UniProt P35610, M1L); experiment: Steady-state enzyme kinetics with fatty acyl-CoA as variable substrate, purified HisACAT1/FLAG; format: biochemical; conditions: constant, saturating cholesterol in CHAPS/PC mixed micelles
T1 construct: hACAT1 contains 550 amino acids; made in house
T1 sequence (P35610 1-550 M1L): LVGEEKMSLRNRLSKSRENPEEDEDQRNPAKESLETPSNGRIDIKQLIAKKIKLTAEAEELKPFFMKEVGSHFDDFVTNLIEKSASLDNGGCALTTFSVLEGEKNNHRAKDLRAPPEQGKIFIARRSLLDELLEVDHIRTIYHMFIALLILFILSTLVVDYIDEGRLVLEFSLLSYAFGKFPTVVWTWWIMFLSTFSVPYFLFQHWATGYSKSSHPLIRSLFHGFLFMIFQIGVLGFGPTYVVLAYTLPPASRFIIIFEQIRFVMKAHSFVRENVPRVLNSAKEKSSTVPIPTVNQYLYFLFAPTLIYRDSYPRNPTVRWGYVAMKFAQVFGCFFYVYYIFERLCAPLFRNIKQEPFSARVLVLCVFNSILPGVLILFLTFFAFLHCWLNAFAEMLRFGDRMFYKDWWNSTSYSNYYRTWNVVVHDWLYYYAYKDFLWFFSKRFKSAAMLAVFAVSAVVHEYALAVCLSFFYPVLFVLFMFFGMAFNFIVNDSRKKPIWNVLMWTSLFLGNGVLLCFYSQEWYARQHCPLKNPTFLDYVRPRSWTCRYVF
Protocol: To monitor enzyme activity during enzyme purification, the enzyme solubilized in the detergent CHAPS was assayed in preformed taurocholate/cholesterol/phosphatidylcholine (PC) mixed micelles as described previously (Chang, C. C. et al. 1998. J. Biol. Chem. 273:35132-35141), with a final concentration of taurocholate at 9.3 mM, PC at 11.2 mM, and cholesterol at 1.6 mM. The amount of mixed micelle solution was used to dilute the detergent presented in the enzyme preparation, so the final CHAPS/PC molar ratio was less than 0.4. The fatty acyl-CoA substrate saturation curves and cholesterol substrate saturation curves were performed under the same conditions as described previously (Chang, C. C. et al. 1998. supra).
Prior to conducting binding experiments, steady-state enzyme kinetic experiments were conducted using purified HisACAT1/FLAG as the enzyme source and either oleoyl- (18:1) CoA or stearoyl- (18:0) CoA as the variable substrate, at a constant, saturating level of cholesterol in the CHAPS/PC mixed micelles.

[5] = target: T1, HisACAT1/FLAG (recombinant hACAT1); experiment: Ligand binding by change in intrinsic (tryptophan) fluorescence of HisACAT1/FLAG
Description: Fluorescence measurements were generated using an ISS PC1 photocounting fluorescence spectrophotometer (model 90095). This instrument has continuously reproducible slits ranging from 0.4 to 32 nm band-pass. The excitation slit width was set at 2 nm. The wavelength for excitation was set at 295 nm in order to minimize the contribution of tyrosine residues to the fluorescence. Purified HisACAT1/FLAG was concentrated using 30K AMICON centrifugal filters such that the final concentration of the protein was 100-200 ng/μL (1.5-3 μM). Purified protein was stored at −80° C. until used. Unless stated otherwise, the fluorescence measurements were performed at pH 7.8 with 50 mM potassium phosphate, 0.5M KCl, and 8.13 mM CHAPS. Sterol (cholesterol, epicholesterol, coprostanol, and epicoprostanol) was prepared as CHAPS/PC/sterol mixed micelles (with CHAPS at 8.13 mM, PC at 4 mM, and with varying concentrations of sterols as indicated) and stored at 20° C. in the dark until usage. The fatty acyl-CoAs were dissolved in 20 mM sodium acetate at pH 6.4 as a 2 mM stock and stored at −80° C. until used. Before the experiment started, all reagents were kept on ice in the dark. To begin the experiment, 50 μL of mixed micelles without or with sterols was added into a HELLMA microcuvette with 3 mm light path. Twenty-five microliters of ACAT1 protein (in 8.13 mM CHAPS and 0.5 M KCl) was then added and rapidly mixed. Fluorescence was monitored within 15 seconds of adding the enzyme. The sample compartment of the instrument was maintained at 20° C. The fluorescence emission spectrum was scanned in 2 minutes between 310 and 410 nm. The differences in fluorescence intensity at 10 intervals within 325-335 nm were averaged in order to calculate the ΔF value between the ligated protein vs that of the unligated protein.
Binding studies were subsequently conducted by monitoring the effect of increasing concentrations of oleoyl-CoA on the intrinsic fluorescence of HisACAT1/FLAG. […] However, the maximal change in the peak of the spectrum was much smaller (5% with respect to the unliganded protein). […] The data was analyzed for a simple bimolecular dissociation equilibrium using the PRISM program.
Binding experiments were subsequently performed by monitoring the effect of increasing concentrations of cholesterol, from 10 to 600 μM, on the intrinsic fluorescence of HisACAT1/FLAG. […] It was estimated that the cholesterol concentration that caused half-maximal spectral change was 35 μM. […] The changes in the intrinsic fluorescence of ACAT1 caused by cholesterol, epicholesterol, coprostanol, or epicoprostanol as the ligand were also compared.

Compound: CCCCCCCCCCC(C)(C)C(=O)Nc1c(OC)cc(OC)cc1OC [CI976]
inhibition of LPAT [1]: has been shown to inhibit

Compound: CC(C)c1cc(C(C)C)c(CC(=O)NS(=O)(=O)Oc2c(C(C)C)cccc2C(C)C)c(C(C)C)c1 [CI1011]
mature/immature ratio of human APP [2]: decreased
VLDL-triglyceride content [3]: reduces the VLDL-triglyceride content

Vmax, fold higher than for stearoyl-CoA [4]: 2.4 fold
maximal increase in fluorescence peak height with respect to unliganded ACAT1 protein ([5]; excitation 295 nm, peak 330 nm): approximately 32%
Kd ([5]; simple bimolecular dissociation equilibrium, PRISM, read-out: dissociation constant): 1900 nM
Compound: CCCCCCCC/C=C\CCCCCCCC(=O)SCCNC(=O)CCNC(=O)[C@H](O)C(C)(C)COP(=O)(O)OP(=O)(O)OC[C@H]1O[C@@H](n2cnc3c(N)ncnc32)[C@H](O)[C@@H]1OP(=O)(O)O [oleoyl-CoA]
